Data published in patent US7575882B2, “Compositions and methods for identifying modulators of TRPV2” (Janssen Pharmaceutica N. V., priority 2005, dated 2009).

Experiments:
Format in all cases: cell-based
rat TRPV2 = molecular target: T1, rat TRPV2 (Rattus norvegicus, UniProt Q9WUD2, A713V/L151P/T158I); assay: Whole-cell patch clamp, HEK293 cells stably expressing rat TRPV2; settings: 100 μM
T1 construct: A cDNA fragment encoding the full-length rat TRPV2 was subcloned into pCI-neo; expressed in transfected cells
T1 sequence (Q9WUD2 1-761 L151P/T158I/A713V): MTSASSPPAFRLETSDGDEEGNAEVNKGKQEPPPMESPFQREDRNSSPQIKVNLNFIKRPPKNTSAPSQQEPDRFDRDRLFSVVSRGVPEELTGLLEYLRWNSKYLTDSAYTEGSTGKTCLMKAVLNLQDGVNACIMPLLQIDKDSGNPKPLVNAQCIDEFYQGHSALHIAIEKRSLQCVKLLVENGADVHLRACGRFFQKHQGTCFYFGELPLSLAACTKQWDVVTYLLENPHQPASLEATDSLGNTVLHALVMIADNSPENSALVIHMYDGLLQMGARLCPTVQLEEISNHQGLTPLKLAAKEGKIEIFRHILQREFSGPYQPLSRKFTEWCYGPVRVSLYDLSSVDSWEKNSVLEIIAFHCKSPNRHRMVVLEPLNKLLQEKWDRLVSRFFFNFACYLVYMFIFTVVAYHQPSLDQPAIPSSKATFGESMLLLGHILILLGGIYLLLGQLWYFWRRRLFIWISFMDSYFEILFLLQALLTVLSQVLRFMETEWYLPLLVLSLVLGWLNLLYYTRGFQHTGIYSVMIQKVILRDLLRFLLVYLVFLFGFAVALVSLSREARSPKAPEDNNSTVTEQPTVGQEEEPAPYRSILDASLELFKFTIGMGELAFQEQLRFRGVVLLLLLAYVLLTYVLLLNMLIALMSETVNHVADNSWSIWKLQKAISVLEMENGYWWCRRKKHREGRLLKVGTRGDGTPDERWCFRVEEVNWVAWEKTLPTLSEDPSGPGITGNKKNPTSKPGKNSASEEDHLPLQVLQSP
Experimental: To further confirm the Δ^9-THC effect on TRPV2, whole-cell patch clamp studies were performed. The extracellular solution contained (in mM): NaCl, 132; CaCl, 1.8; KCl, 5.4; MgCl2, 0.8; HEPES, 10; glucose, 10; pH=7.4. The intracellular solution used to fill recording pipettes contained (in mM): CsCl, 145; EGTA, 5; HEPES, 10; glucose, 5; pH=7.4. Recordings were performed using the conventional whole-cell patch clamp technique, 2-3 days after transient transfection of human TRPV2 into HEK293 cell or 1-2 days after plating HEK293 cells stably expressing rat TRPV2 onto glass coverslips. Currents were amplified by a patch clamp amplifier and filtered at 2 kHz (Axopatch 200B), sampled at 10 kHz using Digidata 1322A and acquired and analyzed with pClamp 9.0 (all instruments from Molecular Devices, CA). A 600 ms voltage ramp was given once every five seconds from −100 mV to +60 mV. The holding potential between voltage ramps was −100 mV. Extracellular solutions were applied to the cell at 0.5 ml/min via a gravity-fed perfusion system. All experiments were performed at 22° C.

human TRPV1 = molecular target: T2, human TRPV1 (Homo sapiens, UniProt Q8NER1); assay: FLIPR assay in HEK293 cells expressing human TRPV1; settings: Δ^9-THC 240 μM, cannabinol 600 μM, others 120 μM
T2 construct: expressed in transfected cells; host or cells: HEK293
Experimental: A selected number of cannabinoids were also tested against HEK293 cells expressing human TRPV1 and canine TRPM8 in the FLIRP assay.

[1] = molecular target: T3, rat and human TRPV2 chimera RHR (Rattus norvegicus, UniProt Q9WUD2, A398L/D418K/D570G/D595E/E431N/E493A/E569T/E577V/E585D/F395L/F429V/I422A/INS586GN/K566E/L151P/L436T/L450V/L461V/L478F/L485V/L503S/M468I/M492L/N571P/P420Q/P587G/P589Q/Q419K/R460H/R490C/R560Q/R563W/R617H/S416T/S424H/S425L/S504A/S564R/S573A/S592G/T428E/T494I/T576S/T580M/V402I/V409A/V543I/V575E/V581E/V621M/V635I/Y400N); assay: Calcium mobilization in HEK293 cells expressing TRPV2 chimera RHR; settings: transient expression in HEK293
T3 construct: expressed in transfected cells; host or cells: HEK293, transient, pCI-neo
Experimental: The deletion mutant constructs were then transfected into HEK293 cells using Fugene 6 reagent (Roche) as per the manufacturer's instructions. At 24 hours post-transfection, the cells were harvested and replated in fresh DMEM medium supplemented with 10% fetal bovine serum, 100 units/ml penicillin, and 100 μg/ml streptomycin. The cells were distributed onto poly-D-Lysine coated 96-or 384-well plates at a density of approximately 40,000 and 10,000 cells per well, respectively. At approximately 48 hours post-transfection, the medium was removed from the assay plate and replaced with Calcium 3 Dye Buffer (Molecular Devices) using the protocol available from the manufacturer. Calcium mobilization was triggered using Δ^9-THC or 2-APB or elevated temperature buffer and measured using either FLIPR or FLEX STATION instruments.
Based on the predicted topology and primary sequence features of TRPV2, TRPV2 are divided into 3 major domains: 1) the amino-terminal intracellular domain; 2) the transmembrane domain; and 3) the carboxyl-terminal intracellular domain. For a chimera, each domain can be of rat (R) or human (H) origin. Three rat and human TRPV2 chimera were constructed and tested herein. RRH (SEQ ID NO:15) was a chimera comprising rat 1-392 aa, rat 393-646 aa, and human 647-764 aa. RHR (SEQ ID NO:16) was a chimera comprising rat 1-392, human 391-646, and rat 647-761. HRR (SEQ ID NO:17) was a chimera comprising human 1-390, rat 393-646, and rat 647-761.
DNA molecules encoding the three rat and human TRPV2 chimeras were obtained by fusion PCR. First, DNA molecules encoding the desired TRPV2 domains were amplified by PCR using the rat or human TRPV2 cDNA as the template with synthetic primer DNA containing in-frame sequence that overlapped with the other species domain to be linked. After PCR amplification and purification, DNA molecules encoding the desired TRPV2 domains from human and rat were combined and used as templates for fusion PCR with primer DNA matching the 5′ and 3′ end sequences of the coding sequence for the full length TRPV2 chimera. […]

T3 sequence (Q9WUD2 other isoform, or with tags, fused parts or gaps with the stated changes): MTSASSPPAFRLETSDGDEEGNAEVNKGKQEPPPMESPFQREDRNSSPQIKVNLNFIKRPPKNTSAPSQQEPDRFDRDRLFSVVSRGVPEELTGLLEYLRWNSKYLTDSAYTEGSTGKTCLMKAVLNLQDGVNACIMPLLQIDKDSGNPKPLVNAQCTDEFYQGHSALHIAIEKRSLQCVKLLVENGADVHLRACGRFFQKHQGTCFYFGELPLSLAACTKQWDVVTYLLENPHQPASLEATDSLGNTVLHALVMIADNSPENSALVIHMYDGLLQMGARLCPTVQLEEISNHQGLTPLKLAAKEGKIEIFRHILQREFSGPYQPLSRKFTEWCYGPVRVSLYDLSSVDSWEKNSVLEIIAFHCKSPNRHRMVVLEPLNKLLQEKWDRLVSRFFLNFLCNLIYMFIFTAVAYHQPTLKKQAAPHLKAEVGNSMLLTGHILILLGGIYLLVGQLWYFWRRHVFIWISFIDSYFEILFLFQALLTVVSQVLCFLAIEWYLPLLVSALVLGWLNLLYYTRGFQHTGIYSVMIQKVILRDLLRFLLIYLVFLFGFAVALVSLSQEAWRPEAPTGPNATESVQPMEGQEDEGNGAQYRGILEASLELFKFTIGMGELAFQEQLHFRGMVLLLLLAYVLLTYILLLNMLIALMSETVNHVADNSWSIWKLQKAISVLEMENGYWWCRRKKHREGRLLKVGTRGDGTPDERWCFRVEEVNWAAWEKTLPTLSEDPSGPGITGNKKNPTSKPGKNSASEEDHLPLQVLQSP
T2 sequence (Q8NER1 whole entry): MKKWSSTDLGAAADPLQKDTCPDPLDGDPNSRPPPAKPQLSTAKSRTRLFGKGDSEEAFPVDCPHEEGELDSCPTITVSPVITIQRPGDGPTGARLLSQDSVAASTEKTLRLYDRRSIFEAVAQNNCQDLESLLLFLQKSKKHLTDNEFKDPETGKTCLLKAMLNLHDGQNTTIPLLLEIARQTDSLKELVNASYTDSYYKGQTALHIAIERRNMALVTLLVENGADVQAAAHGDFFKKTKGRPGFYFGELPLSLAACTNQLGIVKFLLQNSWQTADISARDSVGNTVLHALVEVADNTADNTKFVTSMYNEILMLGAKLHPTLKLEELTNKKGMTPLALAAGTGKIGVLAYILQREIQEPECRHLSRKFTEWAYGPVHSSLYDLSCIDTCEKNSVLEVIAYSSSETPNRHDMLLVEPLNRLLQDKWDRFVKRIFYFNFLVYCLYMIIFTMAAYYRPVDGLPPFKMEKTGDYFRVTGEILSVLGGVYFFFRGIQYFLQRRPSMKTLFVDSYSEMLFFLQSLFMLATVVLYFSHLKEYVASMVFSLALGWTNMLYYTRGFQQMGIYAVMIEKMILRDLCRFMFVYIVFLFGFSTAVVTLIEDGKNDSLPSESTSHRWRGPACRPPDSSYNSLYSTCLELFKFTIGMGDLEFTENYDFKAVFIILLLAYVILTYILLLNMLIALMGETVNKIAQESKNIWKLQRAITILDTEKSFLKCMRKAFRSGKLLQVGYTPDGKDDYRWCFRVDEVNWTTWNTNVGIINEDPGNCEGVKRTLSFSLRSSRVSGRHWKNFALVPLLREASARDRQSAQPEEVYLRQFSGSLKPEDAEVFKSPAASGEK

With Delta-9-tetrahydrocannabinol [Δ^9-THC] the “whole-cell current amplitude in HEK293 cells expressing rTRPV2 compared to control” value (rat TRPV2; 22° C., hyperpolarized and depolarized potentials) was “significant increase of the whole-cell current amplitude”, the “reversal potential of the activated current” value (rat TRPV2; whole-cell patch clamp) was roughly 0 mV and the “activation of TRPV1” value (human TRPV1) was “no significant activation”. The “response of chimera RHR to the compound” value [1] was “fully responsive” and the “response of chimera RHR to the compound” value ([1]; listed as Δ9-THC) was “active”.
